From US20180110218A1, “Substrate for Controlling Flies and Other Insects, Method for Manufacturing Thereof and Use of Said Substrate as Animal Litter” (priority 2016, published 2018)
“Also recorded” adds a separate entry of the source.

Assays:
Assay type in all cases: in vivo
[1] = system: Musca domestica larvae and pupae; assay: Test 5: mortality of M. domestica, wood shavings impregnated with cyromazine formulations on horse manure
Experimental: The absorbent substrate impregnated were wood shavings of the “Great Northern” pine tree, which are the most commonly used for horse litters.
For the effectiveness studies, the formulations for impregnating the wood shavings were applied manually by means of a container with a spray gun. Several sprayings were carried out, turning the wood shavings halfway to ensure that they were homogeneously impregnated.
The organic matter used was rabbit excrement in the first two tests with pyriproxyfen, due to its increased availability and high infestation with fly larvae. For tests 3 and 4 with pyriproxyfen and the test carried out with cyromazine, horse excrement was used since it is the main object on which the product is applied. In both cases, manure with high levels of fly larvae infestation was selected in order to obtain a suitable number of larvae per test. […]
In the case of the test with cyromazine, after the 5 days of exposure the dead pupae and larvae were separated. Once the adults emerged, the dead larvae, the unviable pupae and the adults that emerged (healthy and malformed) were counted in order to calculate the mortality rate for each case. […]

[2] = system: Musca domestica larvae and pupae; assay: Test 4: pupal mortality of M. domestica, wood shavings impregnated with low-concentration pyriproxyfen formulations on horse manure
Excerpt: (§1) The organic matter used was rabbit excrement in the first two tests with pyriproxyfen, due to its increased availability and high infestation with fly larvae. […] In both cases, manure with high levels of fly larvae infestation was selected in order to obtain a suitable number of larvae per test. […]
(§2) In the case of the tests of litters with pyriproxyfen, after 5 days of exposure (enough time for the larvae to progress to the pupal stage), the pupae were separated in plastic cups covered with a net, waiting for the adults to emerge. Once the adults emerged, the unviable pupae and the adults that emerged (healthy and malformed) were counted in order to calculate the mortality rate for each case. […]

[3] = system: Musca domestica larvae and pupae; assay: Test 1: pupal mortality of M. domestica, wood shavings impregnated with pyriproxyfen/diflubenzuron formulations on rabbit manure
Excerpt: as §1, §2

With `Nc1nc(N)nc(NC2CC2)n1` [cyromazine] the “effectiveness (in words)” value [1] was “effective in low doses”.
In the case of `CC(COc1ccc(Oc2ccccc2)cc1)Oc1ccccn1` (stereo not drawn) [pyriproxyfen], the “effectiveness as a pupicide (in words)” value [2] is reported as “good effectiveness; also recorded: effective in low doses”.
With `O=C(NC(=O)c1c(F)cccc1F)Nc1ccc(Cl)cc1` [diflubenzuron] the “mortality results / effectiveness (in words)” value [3] was “effective in low doses”.
